± gives the standard deviation of the averaged measurements.
How the values were obtained:
HL-60 [1] = test: area under dose-response curve (viability, 1 nM-10 uM) (fraction (0-1)); higher = more sensitive; settings: 72 h
How it was run: (§1)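 A rescreen of the full library used HL-60 cells in RPMI 1640 with 10% FBS on 384-well plates, run in duplicate at five tenfold concentrations (1–10,000 nM). Each screen included DMSO or 100 nM of one of three metabolic inhibitors and ran 72 h at 37 °C, 5% CO2. CellTiter-Glo viability was scaled between DMSO and 10 μM proteasome-inhibitor wells. Any area under the curve comes from four-parameter log-logistic fits with drc and PharmacoGx.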

HL-60 [2] = test: cell viability (% survival relative to DMSO control); higher = less cytotoxic; settings: 72 h
How it was run: as §1

[3] = co-treatment: pictilisib 100 nM
[4] = 0.001 µM, co-treatment: AZD3965 100 nM
[5] = 0.001 µM, co-treatment: DMSO vehicle
[6] = 0.001 µM, co-treatment: GSK2194069 100 nM
[7] = 0.001 µM, co-treatment: pictilisib 100 nM
[8] = 0.01 µM, co-treatment: AZD3965 100 nM
[9] = 0.01 µM, co-treatment: DMSO vehicle
[10] = 0.01 µM, co-treatment: GSK2194069 100 nM
[11] = 0.01 µM, co-treatment: pictilisib 100 nM
[12] = 0.1 µM, co-treatment: AZD3965 100 nM
[13] = 0.1 µM, co-treatment: DMSO vehicle
[14] = 0.1 µM, co-treatment: GSK2194069 100 nM
[15] = 0.1 µM, co-treatment: pictilisib 100 nM
[16] = 1 µM, co-treatment: AZD3965 100 nM
[17] = 1 µM, co-treatment: DMSO vehicle
[18] = 1 µM, co-treatment: GSK2194069 100 nM
[19] = 1 µM, co-treatment: pictilisib 100 nM
[20] = 10 µM, co-treatment: AZD3965 100 nM
[21] = 10 µM, co-treatment: DMSO vehicle
[22] = 10 µM, co-treatment: GSK2194069 100 nM
[23] = 10 µM, co-treatment: pictilisib 100 nM
[24] = co-treatment: GSK2194069 100 nM

SMILES	area under dose-response curve (HL-60 [1]; co-treatment: AZD3965 100 nM)	area under dose-response curve (HL-60 [1]; co-treatment: DMSO vehicle)	area under dose-response curve (HL-60 [1]; [3])	cell viability (HL-60 [2]; [4])	cell viability (HL-60 [2]; [5])	cell viability (HL-60 [2]; [6])	cell viability (HL-60 [2]; [7])	cell viability (HL-60 [2]; [8])	cell viability (HL-60 [2]; [9])	cell viability (HL-60 [2]; [10])	cell viability (HL-60 [2]; [11])	cell viability (HL-60 [2]; [12])	cell viability (HL-60 [2]; [13])	cell viability (HL-60 [2]; [14])	cell viability (HL-60 [2]; [15])	cell viability (HL-60 [2]; [16])	cell viability (HL-60 [2]; [17])	cell viability (HL-60 [2]; [18])	cell viability (HL-60 [2]; [19])	cell viability (HL-60 [2]; [20])	cell viability (HL-60 [2]; [21])	cell viability (HL-60 [2]; [22])	cell viability (HL-60 [2]; [23])	area under dose-response curve (HL-60 [1]; [24])
CCn1c(=Cc2cccc[n+]2CC)sc(=C2Sc3ccccc3N2C)c1=O [MKT 077]	< 0.0301	< 0.0301	< 0.0301	95.2 ± 2.8%	102 ± 4.8%	92 ± 3%	95.6 ± 3.1%	102 ± 3.6%	105 ± 2.6%	104 ± 8.8%	113.3 ± 0.81%	97.3 ± 6.6%	97.35 ± 0.5%	96 ± 2%	99.2 ± 3.6%	88.22 ± 0.49%	100.14 ± 0.022%	76.1 ± 3.7%	93.3 ± 3.5%	97.7 ± 8.2%	106 ± 3.7%	73.5 ± 28%	110 ± 18%	–
CCc1c(C(=O)C(N)=O)c2c(OCC(=O)O)cccc2n1Cc1ccccc1 [Varespladib]	–	–	–	97.7 ± 5.8%	101 ± 3.8%	92.6 ± 6.1%	103 ± 4.1%	99.9 ± 7%	95.7 ± 2.9%	93.5 ± 2.6%	99.9 ± 18%	102 ± 5.3%	103 ± 8.2%	97 ± 3.3%	107 ± 3.4%	100.2 ± 0.46%	97.5 ± 1.5%	92.9 ± 2.3%	97.7 ± 1.4%	97 ± 6.2%	98.1 ± 5.8%	89.1 ± 4.8%	97.2 ± 11%	–
CCCCCOC(=O)Nc1nc(=O)n([C@@H]2O[C@H](C)[C@@H](O)[C@H]2O)cc1F [Capecitabine]	< 0.0301	< 0.0301	< 0.0301	103 ± 7.9%	98.8 ± 8.1%	103 ± 7%	104 ± 3.5%	95.72 ± 0.16%	100.39 ± 0.085%	95.88 ± 0.56%	96.7 ± 12%	109 ± 4.4%	106 ± 3%	99.36 ± 0.11%	95.4 ± 13%	102 ± 2.5%	99.7 ± 1.6%	102 ± 1.4%	108 ± 4.2%	96.6 ± 4.8%	98.7 ± 3%	95.6 ± 11%	113 ± 11%	< 0.0301
Cc1c(Cl)cccc1S(=O)(=O)Nc1nc(CC(=O)N2CCN(C)CC2)cs1 [BVT-2733]	< 0.0301	< 0.0301	< 0.0301	101.68 ± 0.086%	101 ± 3%	103.6 ± 0.74%	96.1 ± 7.3%	102 ± 3.8%	103.3 ± 0.6%	105 ± 6.3%	99.8 ± 8.6%	97.2 ± 1.6%	98.9 ± 2%	97 ± 2.4%	96.6 ± 2.2%	98.13 ± 0.69%	98.1 ± 1.3%	88.4 ± 7.7%	87.2 ± 13%	99.4 ± 1.7%	98.8 ± 1.6%	99.66 ± 0.36%	97.9 ± 1.1%	< 0.0301
Cc1cc(C(=O)NNCc2ccccc2)no1 [Isocarboxazid]	< 0.0301	< 0.0301	< 0.0301	103 ± 2.5%	102 ± 8.1%	101 ± 4%	102 ± 2.6%	103 ± 6.9%	101 ± 3.7%	102 ± 6%	96.8 ± 7.7%	94.9 ± 20%	96.3 ± 7.4%	87 ± 17%	86.6 ± 22%	99.03 ± 0.43%	99.7 ± 2%	102 ± 1.1%	103 ± 3.1%	101 ± 2.6%	100 ± 1.7%	98.2 ± 5.2%	90 ± 3.2%	< 0.0301
CCCc1nc(C)c2c(=O)nc(-c3cc(S(=O)(=O)N4CCN(CC)CC4)ccc3OCC)[nH]n12 [Vardenafil]	–	–	–	98.1 ± 1.4%	98.07 ± 0.13%	97.9 ± 1.4%	101 ± 3.4%	100 ± 4.8%	99.7 ± 5%	98.3 ± 5.9%	104 ± 1.9%	96.8 ± 7.3%	84.9 ± 20%	88.3 ± 16%	93 ± 2.5%	108 ± 5.8%	98.5 ± 4.3%	108.1 ± 0.52%	104 ± 7.8%	100 ± 2.6%	103 ± 3.1%	92.4 ± 10%	107 ± 5.3%	–
C[C@H]1c2cccc(O)c2C(=O)C2C(=O)[C@]3(O)C(=O)C(C(N)=O)C(=O)[C@@H](N(C)C)[C@@H]3[C@@H](O)[C@@H]21 (stereo partly drawn) [Doxycycline]	< 0.0301	< 0.0301	< 0.0301	92.6 ± 9.1%	100 ± 2.7%	93.3 ± 7.2%	91.7 ± 6.2%	97.9 ± 4.6%	101 ± 4.3%	96 ± 4.9%	98.48 ± 0.73%	99.6 ± 4.2%	104 ± 2%	99.5 ± 5.7%	99.2 ± 1.6%	96.7 ± 8.5%	102 ± 1.5%	94.8 ± 6.5%	102 ± 3.8%	113 ± 5.6%	114.8 ± 0.59%	108.3 ± 0.83%	96.9 ± 6.5%	< 0.0301
CCOC(=O)c1sc(NC(=O)c2ccco2)c(SC#N)c1C [CBR-5884]	< 0.0301	< 0.0301	< 0.0301	107.6 ± 1%	104 ± 1.5%	97.6 ± 3.5%	107 ± 3.1%	103 ± 1.6%	102 ± 2.5%	98.31 ± 0.17%	101 ± 3.1%	93.2 ± 23%	98.9 ± 5.8%	90.6 ± 12%	81.8 ± 26%	106 ± 3.2%	105 ± 2.1%	98.2 ± 3.5%	101 ± 11%	102 ± 6.6%	100.8 ± 0.41%	103 ± 3.9%	88 ± 4.2%	< 0.0301

Reference: the supplement of paper PMC8671470
